# Measured values taken from ChEMBL document CHEMBL3259793, “Novel cycloalkenepyrazoles as inhibitors of bub1 kinase” (ACS Med Chem Lett, 2014).
# Target: Mitotic checkpoint serine/threonine-protein kinase BUB1 (Homo sapiens, UniProt O43683)
# Assay: Inhibition of Bub1 kinase (unknown origin) by TR-FRET kinase assay
# Mitotic checkpoint serine/threonine-protein kinase BUB1, sequence (O43683 whole entry): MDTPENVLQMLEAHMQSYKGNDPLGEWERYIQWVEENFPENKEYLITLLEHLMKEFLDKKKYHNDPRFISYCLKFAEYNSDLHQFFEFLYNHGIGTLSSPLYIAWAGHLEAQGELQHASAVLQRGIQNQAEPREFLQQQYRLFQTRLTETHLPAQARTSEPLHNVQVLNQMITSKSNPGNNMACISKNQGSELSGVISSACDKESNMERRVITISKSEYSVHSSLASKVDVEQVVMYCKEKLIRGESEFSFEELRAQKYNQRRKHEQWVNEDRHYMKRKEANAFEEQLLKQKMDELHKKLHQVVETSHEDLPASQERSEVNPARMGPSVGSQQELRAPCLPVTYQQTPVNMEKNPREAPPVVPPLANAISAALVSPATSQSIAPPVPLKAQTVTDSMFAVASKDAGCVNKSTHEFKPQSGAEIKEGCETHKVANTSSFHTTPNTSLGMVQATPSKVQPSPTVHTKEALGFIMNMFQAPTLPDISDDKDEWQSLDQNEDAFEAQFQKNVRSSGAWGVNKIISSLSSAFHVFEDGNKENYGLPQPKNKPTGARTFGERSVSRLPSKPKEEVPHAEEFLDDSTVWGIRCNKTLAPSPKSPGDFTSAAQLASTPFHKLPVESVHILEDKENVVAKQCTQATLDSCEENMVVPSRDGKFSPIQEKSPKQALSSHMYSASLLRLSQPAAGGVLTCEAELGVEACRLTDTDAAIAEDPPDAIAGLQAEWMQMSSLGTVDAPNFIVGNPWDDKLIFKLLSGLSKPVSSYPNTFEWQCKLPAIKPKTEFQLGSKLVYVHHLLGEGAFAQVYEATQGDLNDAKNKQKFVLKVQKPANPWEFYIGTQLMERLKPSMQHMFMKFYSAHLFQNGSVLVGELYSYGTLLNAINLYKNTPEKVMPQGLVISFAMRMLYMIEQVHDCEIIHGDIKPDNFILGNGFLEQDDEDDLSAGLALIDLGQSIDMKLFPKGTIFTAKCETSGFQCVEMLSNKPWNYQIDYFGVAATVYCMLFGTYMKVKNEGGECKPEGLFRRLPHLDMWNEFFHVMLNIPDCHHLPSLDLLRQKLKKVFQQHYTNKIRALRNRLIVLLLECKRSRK
smiles,measurement,value
CCOC(=O)c1cnccc1Nc1nc(-c2nn(Cc3ccccc3F)c3c2CCC3)ncc1Oc1ccccc1C(=O)OCC,IC50,500 nM
